{"source": "patent US20250114377A1", "about": "“TWO-PRONGED TREATMENT FOR NIEMANN PICK TYPE C DISEASE” (UNIVERSITY OF NOTRE DAME DU LAC, priority 2022, published 2025)", "key": {"[1]": {"test_system": "NPC1 (I1061T/I1061T) mice", "test": "27-HC treatment of NPC1 (I1061T/I1061T) mice by oral gavage", "assay_type": "in vivo", "procedure": "FIG. 11. Impact of 27-HC Treatment on NPC1 (I1061T/I1061T) Mice. Kaplan-Meier lifespan analysis of NPC1 (I1061T/I1061T) mice treated with either 0 mg/kg (dashed line) or 5 mg/kg (solid line) 27-HC three times per week by oral gavage.\nFIG. 13. Impact of 27-HC Treatment on Lipid Accumulation in Livers of Male and Female Mice. Comparing livers of wild-type vs. NPC1 (I1061T/I1061T) mice, lipid accumulations (black arrows) are apparent in NPC1 mutant mice but not wild-type mice. This is true and both males and females.\n(§1) To test this idea, we treated either NPC1 mutant (null or I1061T) or StARD9 mutant (null or truncation mutant) cells with 27-HC in a cocktail that delivers it into the cytoplasm independent of receptor-mediated endocytosis. […] Next, we treated NPC1(−/−) mice with 27-HC by i.p. delivery."}, "lysosomal tubulation": {"test_system": "lysosomal tubulation", "test": "Rescue of lysosomal tubulation with purified oxysterols in LDL-depleted media (FIG. 4)", "assay_type": "cell-based", "procedure": "FIG. 4. Rescue of Lysosomal Tubulation with Purified Oxysterols. Measurements of lysosomal tubulation comparing control complete media (Control) to media depleted of LDL (LDL−) and depleted media supplemented with 27-hydroxycholesterol (27-HC), 24-hydroxycholesterol (24-HC) or 25-hydroxycholesterol (25-HC).\nFixed and live-cell imaging was performed on COS-7 cells grown in Dulbecco's Modified Eagle's Medium (DMEM) supplemented with 10% fetal bovine serum, 1% L-glutamine, and penicillin/streptomycin (Sigma-Aldrich). Transfections were performed using either Lipofectamine (Life Technologies), X-treme Gene DNA Transfection reagent (Roche, Indianapolis, IN) or Nanofect (Allstem, Richmond, CA). J774A.1 mouse macrophages were provided and cultured in the same media. Cells were tested for contamination using PCR-based test kits (Sartorius, Inc.; Cat #SMB95-1001).\nMicroscopy experiments were performed on a Zeiss Axiovert 200M (Thornwood, NY) run by Metamorph software (Sunnyvale, CA). Fixed and live cell imaging data was collected using either a Photometrics Coolsnap HQ or Cascade 1k CCD camera (Tucson, AZ). Timelapse imaging of cells expressing NPC1-EGFP and mCherry-StARD9 utilized a Dual-view camera (Photometrics) adapter to allow simultaneous acquisition of green and red channels at each timepoint. Kymographs were generated in Metamorph using a 1p m slice from each frame.\nas §1"}, "[2]": {"test_system": "StARD9 mutant (null or truncation mutant) cells", "test": "Rescue of lysosomal tubulation by 27-HC in StARD9 mutant cells (FIG. 5)", "assay_type": "cell-based", "settings": "27-HC in a cocktail that bypasses receptor-mediated endocytosis", "text": "FIG. 5. Impact of NPC1 and StARD9 Mutations on Rescue of Lysosomal Tubulation by 27-Hydroxycholesterol (27-HC). The ability of 27-HC to rescue lysosomal tubulation after depletion of NPC1 (shRNA-NPC1) or StARD9 (shRNA-STARD9) was compared to cells expressing the NPC1 (I1061T)-eGFP mutant (I1061T) or a eGFP-StARD9 construct expressing amino acids 1-4483 (STARD9-ΔSTART). ***—p<0.005; ns (not significant).\nas §1"}, "[3]": {"test_system": "StARD9(−/−)/NPC1 (I1061T/I1061T) mice", "test": "27-HC treatment of mice mutant for both NPC1 and StARD9 / StARD9 knock-out mice", "assay_type": "in vivo", "settings": "5 mg/kg three times per week oral gavage; vs NPC1 (I1061T/I1061T) mice; p=0.0001", "procedure": "FIG. 12. Impact of 27-HC Treatment on NPC1 (I1061T/I1061T)/StARD9 (−/−) Mice. Kaplan-Meier lifespan analysis of NPC1 (I1061T/I1061T) mice (solid line) to StARD9(−/−)/NPC1 (I1061T/I1061T) mice (dashed line) each treated with 5 mg/kg 27-HC three times per week by oral gavage.\nMutations in the NPC1 gene affect two independent lysosomal functions. The first is the generation of lysosomal tubules as a mechanism to deliver intracellular cholesterol to other membrane-bound compartments. Because this function is impaired in NPC disease, we investigated the protein components necessary for tubule projection. We identified 27-HC as a signaling molecule that stimulates lysosomal tubulation and is not provided properly to lysosomal membrane to elicit tubulation in NPC disease. To correct this defect, we provide pure 27-HC in a cocktail that bypasses endocytosis. […] We have also tested this therapy in two different transgenic strains of mice with NPC1 mutations. […] Because we know the molecular target for 27-HC (StARD9), we tested 27-HC treatment in mice where we removed the StARD9 gene. […] This confirms the molecular target for 27-HC treatment and is consistent with our proposed model for the defects in NPC disease. Independent of the role for NPC1 in lysosomal tubulation, NPC1 is the “receptor” for the pro-apoptotic protein STING. […]"}, "[4]": {"settings": "NPC1 (I1061T/I1061T) mice, oral gavage, vs vehicle alone"}}, "note": "Entries after “also recorded” stand apart in the source; their conditions may differ.", "data": [{"smiles": "C[C@@H](CO)CCC[C@@H](C)[C@H]1CC[C@H]2[C@@H]3CC=C4C[C@@H](O)CC[C@]4(C)[C@H]3CC[C@]12C", "note": "[27-HC, 27-hydroxycholesterol]", "values": [{"measurement": "Lifespan (Kaplan-Meier)", "setting": "[1]; NPC1 (I1061T/I1061T) mice, 5 mg/kg vs 0 mg/kg three times per week oral gavage, p=0.0108", "result": "extended the lifespan of the mice; also recorded: Extension of lifespan was significant"}, {"measurement": "Lipid accumulation in livers", "setting": "[1]; NPC1 (I1061T/I1061T) mice, males and females", "result": "successful in reducing these lipid accumulations"}, {"measurement": "Sex difference of treatment benefit", "setting": "[1]; NPC1 (I1061T/I1061T) mice, oral gavage", "result": "worked better in males than females"}, {"measurement": "Onset of symptoms", "setting": "[1]; [4]", "result": "delayed the onset of symptoms"}, {"measurement": "Severity of symptoms", "setting": "[1]; [4]", "result": "reduced the severity of symptoms"}, {"measurement": "Dosage needed for reduction of liver lipid accumulations, females", "setting": "[1]; female NPC1 (I1061T/I1061T) mice", "result": 40, "unit": "mg/kg"}, {"measurement": "Sufficiency of the highest dose used, livers", "setting": "[1]; females compared to males", "result": "not sufficient in females compared to males"}, {"measurement": "Dosage needed for reduction of liver lipid accumulations, males", "setting": "[1]; male NPC1 (I1061T/I1061T) mice", "result": 10, "unit": "mg/kg"}, {"measurement": "Potency as signaling molecule for StARD9 among cholesterol and individual oxysterols", "setting": "lysosomal tubulation", "result": "most potent candidate"}, {"measurement": "Rescue of lysosomal tubulation in StARD9 mutant cells", "setting": "[2]", "result": "not StARD9 mutant cells"}, {"measurement": "Benefit of 27-HC treatment (lifespan) in mice lacking StARD9", "setting": "[3]", "result": "the benefit of the 27-HC treatment was lost; also recorded: significantly less effective; also recorded: does not provide any benefit"}]}]}
